Test results as given in US20020137725A1, “Use of tagatose in promoting cardiovascular health” (priority 2001, published 2002).

Tests used:
[1] = Pilot study of long term effects of D-tagatose in humans with type-2 diabetes (University of Maryland); format: in vivo; conditions: long term treatment; each of the subjects, both the patients (type-2 diabetes) and the controls
Experimental: U.S. Pat. No. 5,447,917 discloses and claims a method for treating diabetes by administering to a mammal an amount of D-tagatose effective to inhibit the rise in blood sugar associated with the consumption of sugar. A pilot study was conducted at the University of Maryland to investigate the long term effects of D-tagatose in humans with type-2 diabetes.

[2] = Example 1: tagatose given to a human patient with lowered HDL level; format: in vivo; conditions: 15 grams with each of three meals per day, after six months
Source text: A human patient is diagnosed as having a lowered HDL level than that found in a previous visit. The physician is concerned that this may forecast atherosclerosis, possibly leading to a heart attack, or to a stroke. The physician prescribes that the patient take 15 grams of tagatose with each of three meals per day. […] The physician is satisfied with the improvement and prescribes continued […] doses of tagatose per meal as a means of maintaining and improving the patient's cardiovascular health.

O=C(CO)[C@@H](O)[C@@H](O)[C@H](O)CO [D-tagatose]
HDL-cholesterol levels [1]: increase in HDL-cholesterol levels

O=C(CO)[C@@H](O)[C@@H](O)[C@H](O)CO [tagatose]
patient's HDL level versus immediately before treatment [2]: significantly higher
